#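 Exposure lasted 48 hours, with cells grown in 96-well plates and compounds tested at five concentrations. TGI: total growth inhibition.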
# Assays:
# Test in all cases: DTP human tumour cell line panel, 48 h
# [1] = test system: 786-0 renal
# [2] = test system: A498 renal
# [3] = test system: A549 NSCLC
# [4] = test system: ACHN renal
# [5] = test system: BT-549 breast
# [6] = test system: CAKI-1 renal
# [7] = test system: COLO 205 colon
# [8] = test system: DU-145 prostate
# [9] = test system: EKVX NSCLC
# [10] = test system: HCC-2998 colon
# [11] = test system: HCT-116 colon
# [12] = test system: HCT-15 colon
# [13] = test system: HL-60(TB) leukemia
# [14] = test system: HOP-62 NSCLC
# [15] = test system: HOP-92 NSCLC
# [16] = test system: HS 578T breast
# [17] = test system: HT29 colon
# [18] = test system: IGROV1 ovarian
# [19] = test system: K-562 leukemia
# [20] = test system: KM12 colon
# [21] = test system: LOX IMVI melanoma
# [22] = test system: M14 melanoma
# [23] = test system: MALME-3M melanoma
# [24] = test system: MCF7 breast
# [25] = test system: MDA-MB-231 breast
# [26] = test system: MDA-MB-435
# [27] = test system: MDA-N
# [28] = test system: NCI-H226 lung
# [29] = test system: NCI-H23 lung
# [30] = test system: NCI-H522 lung
# [31] = test system: NCI/ADR-RES ovarian
# [32] = test system: OVCAR-3 ovarian
# [33] = test system: OVCAR-4 ovarian
# [34] = test system: OVCAR-5 ovarian
# [35] = test system: OVCAR-8 ovarian
# [36] = test system: PC-3 prostate
# [37] = test system: SF-268 CNS
# [38] = test system: SF-295 CNS
# [39] = test system: SF-539 CNS
# [40] = test system: SK-MEL-2 melanoma
# [41] = test system: SK-MEL-28 melanoma
# [42] = test system: SK-MEL-5 melanoma
# [43] = test system: SK-OV-3 ovarian
# [44] = test system: SN12C renal
# [45] = test system: SNB-19 CNS
# [46] = test system: SNB-75 CNS
# [47] = test system: SW-620 colon
# [48] = test system: T-47D breast
# [49] = test system: TK-10 renal
# [50] = test system: U251 CNS
# [51] = test system: UACC-257 melanoma
# [52] = test system: UACC-62 melanoma
# [53] = test system: UO-31 renal
# [54] = test system: CCRF-CEM leukemia
# [55] = test system: MOLT-4 leukemia
# [56] = test system: NCI-H460 lung
# [57] = test system: RPMI-8226 leukemia
# [58] = test system: SR leukemia
# [59] = test system: RXF 393 renal
compound,measurement,setting,value
CN(C)CCn1c(=O)c2ccc(NCCNCCO)c3c(=O)c4ccccc4n(c1=O)c23,TGI,[1],4.16 µM
same,TGI,[2],0.458 µM
same,TGI,[3],3.16 µM
same,TGI,[4],15.9 µM
same,TGI,[5],4.81 µM
same,TGI,[6],0.186 µM
same,TGI,[7],0.836 µM
same,TGI,[8],0.628 µM
same,TGI,[9],2.41 µM
same,TGI,[10],2.34 µM
same,TGI,[11],3.4 µM
same,TGI,[12],6.9 µM
same,TGI,[13],0.0197 µM
same,TGI,[14],0.851 µM
same,TGI,[15],0.604 µM
same,TGI,[16],1.37 µM
same,TGI,[17],4.6 µM
same,TGI,[18],1.87 µM
same,TGI,[19],1.08 µM
same,TGI,[20],2.42 µM
same,TGI,[21],0.78 µM
same,TGI,[22],1.72 µM
same,TGI,[23],3.41 µM
same,TGI,[24],3.2 µM
same,TGI,[25],0.852 µM
same,TGI,[26],2.07 µM
same,TGI,[27],1.78 µM
same,TGI,[28],4.28 µM
same,TGI,[29],0.849 µM
same,TGI,[30],0.34 µM
same,TGI,[31],16.3 µM
same,TGI,[32],5.66 µM
same,TGI,[33],5.24 µM
same,TGI,[34],5.19 µM
same,TGI,[35],5.64 µM
same,TGI,[36],2.09 µM
same,TGI,[37],0.977 µM
same,TGI,[38],14.6 µM
same,TGI,[39],0.593 µM
same,TGI,[40],1.85 µM
same,TGI,[41],> 19.7 µM
same,TGI,[42],0.813 µM
same,TGI,[43],16.2 µM
same,TGI,[44],0.509 µM
same,TGI,[45],3.98 µM
same,TGI,[46],0.404 µM
same,TGI,[47],> 30.7 µM
same,TGI,[48],7.61 µM
same,TGI,[49],6.95 µM
same,TGI,[50],3.07 µM
same,TGI,[51],3.14 µM
same,TGI,[52],0.88 µM
same,TGI,[53],0.842 µM
CC12CCCC(C(=O)O)(C1)[C@H](C(C)(C)C(=O)O)CC2 (stereo partly drawn),TGI,[1],> 100 µM
same,TGI,[3],> 100 µM
same,TGI,[4],> 100 µM
same,TGI,[5],> 100 µM
same,TGI,[6],> 100 µM
same,TGI,[54],> 100 µM
same,TGI,[7],> 100 µM
same,TGI,[8],> 100 µM
same,TGI,[9],> 100 µM
same,TGI,[11],> 100 µM
same,TGI,[12],> 100 µM
same,TGI,[13],> 100 µM
same,TGI,[14],> 100 µM
same,TGI,[15],> 100 µM
same,TGI,[16],> 100 µM
same,TGI,[17],> 100 µM
same,TGI,[18],> 100 µM
same,TGI,[19],> 100 µM
same,TGI,[20],> 100 µM
same,TGI,[21],> 100 µM
same,TGI,[22],> 100 µM
same,TGI,[23],> 100 µM
same,TGI,[24],> 100 µM
same,TGI,[26],> 100 µM
same,TGI,[27],> 100 µM
same,TGI,[55],> 100 µM
same,TGI,[28],> 100 µM
same,TGI,[29],> 100 µM
same,TGI,[56],> 100 µM
same,TGI,[30],> 100 µM
same,TGI,[31],> 100 µM
same,TGI,[32],> 100 µM
same,TGI,[33],> 100 µM
same,TGI,[34],> 100 µM
same,TGI,[35],> 100 µM
same,TGI,[36],> 100 µM
same,TGI,[57],> 100 µM
same,TGI,[37],> 100 µM
same,TGI,[38],> 100 µM
same,TGI,[40],> 100 µM
same,TGI,[41],> 100 µM
same,TGI,[42],> 100 µM
same,TGI,[43],> 100 µM
same,TGI,[44],> 100 µM
same,TGI,[45],> 100 µM
same,TGI,[46],> 100 µM
same,TGI,[58],> 100 µM
same,TGI,[47],> 100 µM
same,TGI,[48],> 100 µM
same,TGI,[49],> 100 µM
same,TGI,[50],> 100 µM
same,TGI,[51],> 100 µM
same,TGI,[52],> 100 µM
same,TGI,[53],> 100 µM
Cc1nc2ccccc2c(=O)n1NC(=O)c1ccccn1,TGI,[1],> 100 µM
same,TGI,[2],> 100 µM
same,TGI,[3],> 100 µM
same,TGI,[4],> 100 µM
same,TGI,[5],> 100 µM
same,TGI,[54],> 100 µM
same,TGI,[7],> 100 µM
same,TGI,[8],> 100 µM
same,TGI,[9],> 100 µM
same,TGI,[10],> 100 µM
same,TGI,[11],> 100 µM
same,TGI,[13],> 100 µM
same,TGI,[14],> 100 µM
same,TGI,[15],> 100 µM
same,TGI,[16],> 100 µM
same,TGI,[17],> 100 µM
same,TGI,[18],> 100 µM
same,TGI,[19],> 100 µM
same,TGI,[20],> 100 µM
same,TGI,[21],> 100 µM
same,TGI,[22],> 100 µM
same,TGI,[23],> 100 µM
same,TGI,[25],> 100 µM
same,TGI,[26],> 100 µM
same,TGI,[27],> 100 µM
same,TGI,[55],> 100 µM
same,TGI,[29],> 100 µM
same,TGI,[56],> 100 µM
same,TGI,[30],> 100 µM
same,TGI,[31],> 100 µM
same,TGI,[32],> 100 µM
same,TGI,[33],> 100 µM
same,TGI,[35],> 100 µM
same,TGI,[36],> 100 µM
same,TGI,[57],> 100 µM
same,TGI,[59],> 100 µM
same,TGI,[37],> 100 µM
same,TGI,[38],> 100 µM
same,TGI,[39],> 100 µM
same,TGI,[41],> 100 µM
same,TGI,[42],> 100 µM
same,TGI,[43],> 100 µM
same,TGI,[44],> 100 µM
same,TGI,[45],> 100 µM
same,TGI,[46],> 100 µM
same,TGI,[58],> 100 µM
same,TGI,[47],> 100 µM
same,TGI,[48],> 100 µM
same,TGI,[49],> 100 µM
same,TGI,[50],> 100 µM
same,TGI,[51],> 100 µM
same,TGI,[52],> 100 µM
same,TGI,[53],> 100 µM
NC1C/C(=N\O)c2c(Cl)sc(Cl)c21 (stereo not drawn),TGI,[1],33.4 µM
same,TGI,[2],59.8 µM
same,TGI,[3],> 100 µM
same,TGI,[4],36.4 µM
same,TGI,[5],32.9 µM
same,TGI,[6],32.2 µM
same,TGI,[54],> 100 µM
same,TGI,[7],61.4 µM
same,TGI,[8],29 µM
same,TGI,[9],34 µM
same,TGI,[10],> 100 µM
same,TGI,[11],20.8 µM
same,TGI,[12],33 µM
same,TGI,[13],> 100 µM
same,TGI,[14],37 µM
same,TGI,[15],42.9 µM
same,TGI,[16],> 100 µM
same,TGI,[17],54.6 µM
same,TGI,[18],32 µM
same,TGI,[19],> 100 µM
same,TGI,[20],25.5 µM
same,TGI,[21],15.9 µM
same,TGI,[22],34.1 µM
same,TGI,[23],34.5 µM
same,TGI,[24],27.5 µM
same,TGI,[26],29.5 µM
same,TGI,[27],33.4 µM
same,TGI,[55],> 100 µM
same,TGI,[28],41.4 µM
same,TGI,[29],33.7 µM
same,TGI,[56],43.3 µM
same,TGI,[31],67.3 µM
same,TGI,[32],31.8 µM
same,TGI,[33],38.4 µM
same,TGI,[34],40 µM
same,TGI,[35],28.8 µM
same,TGI,[36],48.8 µM
same,TGI,[57],65.3 µM
same,TGI,[37],> 100 µM
same,TGI,[38],91.1 µM
same,TGI,[39],22.1 µM
same,TGI,[40],36.1 µM
same,TGI,[41],33.6 µM
same,TGI,[43],> 100 µM
same,TGI,[44],35 µM
same,TGI,[45],94.3 µM
same,TGI,[46],76.9 µM
same,TGI,[58],> 100 µM
same,TGI,[47],33.4 µM
same,TGI,[48],39.7 µM
same,TGI,[49],31.4 µM
same,TGI,[51],31.2 µM
same,TGI,[53],34.3 µM

# — PubChem BioAssay (NCI)
